According to the NIST ThermoML archive (doi:10.1021/acs.jced.7b00221):

Assay: xn = mol fraction of the nth substance listed
Conditions: 100 kPa, Liquid; for viscosity: Cone and plate viscometry; for mass density: Vibrating tube method

CCCCCCn1cc[n+](C)c1C.O=S(=O)([N-]S(=O)(=O)C(F)(F)F)C(F)(F)F + CCCCCCCCCCCCCC[P+](CCCCCC)(CCCCCC)CCCCCC.O=S(=O)([N-]S(=O)(=O)C(F)(F)F)C(F)(F)F
viscosity [mPa·s]
Conditions | 278.15 K | 283.15 K | 288.15 K | 293.15 K | 298.15 K | 303.15 K | 308.15 K | 313.15 K | 318.15 K | 323.15 K
x2 = 0.2 | 707 | 483 | 336 | 242 | 179 | 136 | 106 | 84 | 68 | 55
x2 = 0.4 | 932 | 634 | 442 | 317 | 234 | 177 | 137 | 107 | 86 | 71
x2 = 0.596 | 1000 | 683 | 477 | 342 | 252 | 190 | 146 | 115 | 92 | 75
x2 = 0.749 | 1015 | 698 | 490 | 353 | 261 | 196 | 151 | 119 | 95 | 77
x2 = 0.898 | 1130 | 786 | 555 | 400 | 297 | 224 | 173 | 135 | 108 | 80

CC[P+](CC)(CC)COCCOC.O=S(=O)([N-]S(=O)(=O)C(F)(F)F)C(F)(F)F + CCCCCCCCCC[P+](CC)(CC)CC.O=[N+]([O-])c1cn[n-]c1
x2 = 0
Conditions | viscosity [mPa·s]
278.15 K | 84
283.15 K | 65
288.15 K | 51

CCCCCC[n+]1ccn(C)c1.O=S(=O)([N-]S(=O)(=O)C(F)(F)F)C(F)(F)F + CCCCCCCC[P+](CC)(CC)CC.O=[N+]([O-])c1cn[n-]c1
x2 = 0
Conditions | mass density [kg/m3]
283.15 K | 1385.6
288.15 K | 1381
293.15 K | 1376.5
295.15 K | 1374.6
298.15 K | 1371.9
303.15 K | 1367.3
308.15 K | 1362.8
313.15 K | 1358.3
318.15 K | 1353.7
323.15 K | 1349.2
328.15 K | 1344.7
333.15 K | 1340.3
338.15 K | 1335.8
343.15 K | 1331.4
348.15 K | 1326.9
353.15 K | 1322.5

CCCCCCn1cc[n+](C)c1C.O=S(=O)([N-]S(=O)(=O)C(F)(F)F)C(F)(F)F + CCCCCCCC[P+](CC)(CC)CC.O=[N+]([O-])c1cn[n-]c1
x2 = 0
Conditions | mass density [kg/m3]
283.15 K | 1373
288.15 K | 1368.4
293.15 K | 1363.9
295.15 K | 1362.1
298.15 K | 1359.5
303.15 K | 1355.1
308.15 K | 1350.8
313.15 K | 1346.4
318.15 K | 1342
323.15 K | 1337.6
328.15 K | 1333.2
333.15 K | 1328.9
338.15 K | 1324.5
343.15 K | 1320.2
348.15 K | 1315.8
353.15 K | 1311.5

CC[P+](CC)(CC)COCCOC.O=S(=O)([N-]S(=O)(=O)C(F)(F)F)C(F)(F)F + CCCCCCC[P+](CC)(CC)CC.O=[N+]([O-])c1cn[n-]c1
x2 = 0
Conditions | viscosity [mPa·s]
278.15 K | 84
283.15 K | 65
288.15 K | 51
